Test results reported in ChEMBL document CHEMBL1201862, “PubChem BioAssay data set” (2004).
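These data come from cells grown in 96-well plates and exposed to compound for 48 hours at five concentrations. GI50: concentration for 50% inhibition of growth.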 Active and inactive are the calls of the source. No stated cut-off is given here; in the data, active = GI50 up to about 1.1 µM and inactive = higher.

Legend:
Assay in all cases: growth of human tumour cells (NCI), 48 h
786-0 = test system: 786-0
A549 = test system: A549
BT-549 = test system: BT-549
CCRF-CEM = test system: CCRF-CEM
DU-145 = test system: DU-145
HCC 2998 = test system: HCC 2998
HL-60 = test system: HL-60
IGROV-1 = test system: IGROV-1
KM12 = test system: KM12
LOX IMVI = test system: LOX IMVI
MCF7 = test system: MCF7
NCI/ADR-RES = test system: NCI/ADR-RES
OVCAR-3 = test system: OVCAR-3
OVCAR-4 = test system: OVCAR-4
OVCAR-8 = test system: OVCAR-8
RPMI-8226 = test system: RPMI-8226
SF-268 = test system: SF-268
SR = test system: SR
SW-620 = test system: SW-620
UACC-62 = test system: UACC-62

Row | Structure (SMILES) | GI50 (786-0) | GI50 (A549) | GI50 (BT-549) | GI50 (CCRF-CEM) | GI50 (DU-145) | GI50 (HCC 2998) | GI50 (HL-60) | GI50 (IGROV-1) | GI50 (KM12) | GI50 (LOX IMVI) | GI50 (MCF7) | GI50 (NCI/ADR-RES) | GI50 (OVCAR-3) | GI50 (OVCAR-4) | GI50 (OVCAR-8) | GI50 (RPMI-8226) | GI50 (SF-268) | GI50 (SR) | GI50 (SW-620) | GI50 (UACC-62)
1 | CCCC(=O)Nc1cc(/C=C/C(=O)N2CC(CCl)c3c2cc(OCc2ccccc2)c2[nH]cc(C)c32)n(C)c1 (stereo not given) | 0.0365 µM (active) | 0.0219 µM (active) | 0.159 µM (active) | 0.0101 µM (active) | 0.0194 µM (active) | 0.0253 µM (active) | 0.0259 µM (active) | 0.0211 µM (active) | 0.102 µM (active) | 0.0817 µM (active) | 0.0025 µM (active) | 0.0238 µM (active) | 0.127 µM (active) | 0.069 µM (active) | 0.0221 µM (active) | 0.0745 µM (active) | 0.0226 µM (active) | 0.00444 µM (active) | 0.0597 µM (active) | 0.027 µM (active)
2 | CCCCCCCNC(P(=O)(O)O)P(=O)(O)O | > 100 µM (inactive) | > 100 µM (inactive) | > 100 µM (inactive) | > 100 µM (inactive) | > 100 µM (inactive) | 56.2 µM (inactive) | > 100 µM (inactive) | > 100 µM (inactive) | > 100 µM (inactive) | > 100 µM (inactive) | > 100 µM (inactive) | > 100 µM (inactive) | > 100 µM (inactive) | > 100 µM (inactive) | > 100 µM (inactive) | 62.8 µM (inactive) | > 100 µM (inactive) | > 100 µM (inactive) | > 100 µM (inactive) | > 100 µM (inactive)
3 | COC(=O)c1ccc2c(c1)CCN2C(=O)c1cc2c(cc1Br)OCO2 | 0.74 µM (active) | 1.74 µM (inactive) | 7.18 µM (inactive) | 0.404 µM (active) | 1.71 µM (inactive) | 0.989 µM (active) | 0.198 µM (active) | 0.614 µM (active) | 0.424 µM (active) | 3.11 µM (inactive) | 0.251 µM (active) | 0.342 µM (active) | 0.313 µM (active) | 1.54 µM (inactive) | 2.11 µM (inactive) | 0.668 µM (active) | 1.8 µM (inactive) | 0.0817 µM (active) | 0.822 µM (active) | 0.439 µM (active)
4 | COc1cc(Nc2nc3ccc(C(F)(F)F)cc3nc2C(=O)O)cc(OC)c1OC | 27.8 µM (inactive) | 33.3 µM (inactive) | 19.2 µM (inactive) | 41.6 µM (inactive) | 28.5 µM (inactive) | 18.6 µM (inactive) | 31.3 µM (inactive) | 25.6 µM (inactive) | 23.6 µM (inactive) | 19.1 µM (inactive) | 26.2 µM (inactive) | 21.3 µM (inactive) | 32.1 µM (inactive) | 15.1 µM (inactive) | 27.7 µM (inactive) | 21.5 µM (inactive) | 18.8 µM (inactive) | 34.7 µM (inactive) | 25.7 µM (inactive) | 18.6 µM (inactive)
5 | COc1ccc2cc(/C=N/NC(=O)Nc3ccccc3)ccc2c1 |  |  | > 100 µM (inactive) | > 100 µM (inactive) | > 100 µM (inactive) | > 100 µM (inactive) | > 100 µM (inactive) | > 100 µM (inactive) | > 100 µM (inactive) | > 100 µM (inactive) | > 100 µM (inactive) | > 100 µM (inactive) | > 100 µM (inactive) | > 100 µM (inactive) | > 100 µM (inactive) | > 100 µM (inactive) |  | > 100 µM (inactive) | > 100 µM (inactive) | > 100 µM (inactive)
6 | COC(=O)CC1(CNC(=O)OCc2ccccc2)OCCO1 | > 100 µM (inactive) | > 100 µM (inactive) | > 100 µM (inactive) | > 100 µM (inactive) | > 100 µM (inactive) | > 100 µM (inactive) | > 100 µM (inactive) | > 100 µM (inactive) | > 100 µM (inactive) | > 100 µM (inactive) | > 100 µM (inactive) | > 100 µM (inactive) | > 100 µM (inactive) | > 100 µM (inactive) | > 100 µM (inactive) | > 100 µM (inactive) |  | > 100 µM (inactive) | > 100 µM (inactive) | > 100 µM (inactive)
7 | CC(C)NC(=O)OCc1c(COC(=O)NC(C)C)c(-c2cc[n+](COC(=O)Cc3ccccc3)cc2)n2c1CCC2 | 46 µM (inactive) | > 100 µM (inactive) | > 100 µM (inactive) | 38.5 µM (inactive) | > 100 µM (inactive) | > 100 µM (inactive) | 31.9 µM (inactive) | > 100 µM (inactive) | > 100 µM (inactive) | > 100 µM (inactive) | 67.5 µM (inactive) | > 100 µM (inactive) | > 100 µM (inactive) | > 100 µM (inactive) | > 100 µM (inactive) | > 100 µM (inactive) | 55.1 µM (inactive) | 9.59 µM (inactive) | > 100 µM (inactive) | 56.2 µM (inactive)
8 | CCN(CC)c1ccc2c(c1)Oc1ccc(N(C(C)=O)c3ccccc3)cc1C21OC(=O)c2ccccc21 (stereo not given) | > 100 µM (inactive) | 37.8 µM (inactive) | 98.2 µM (inactive) | 21.1 µM (inactive) | > 100 µM (inactive) | > 100 µM (inactive) | 8.53 µM (inactive) | > 100 µM (inactive) | 23 µM (inactive) | > 100 µM (inactive) | 40.3 µM (inactive) | > 61.8 µM (inactive) | > 100 µM (inactive) | > 82.8 µM (inactive) | > 75.5 µM (inactive) | 6.76 µM (inactive) | > 100 µM (inactive) | 23.3 µM (inactive) | 47.1 µM (inactive) | > 91.8 µM (inactive)
9 | CN(C)CCCNc1ccc2nnn3c4ccc(O)cc4c(=O)c1c23 | 2.86 µM (inactive) | 0.358 µM (active) | 18.8 µM (inactive) | 1.28 µM (inactive) | 5.01 µM (inactive) | 1.89 µM (inactive) | 3.72 µM (inactive) | 1.92 µM (inactive) | 1.68 µM (inactive) | 1.16 µM (inactive) | 5.7 µM (inactive) | 4.56 µM (inactive) | 9.02 µM (inactive) | 4.54 µM (inactive) | 1.5 µM (inactive) | 2.47 µM (inactive) | 2.88 µM (inactive) | 0.193 µM (active) | 1.16 µM (inactive) | 11 µM (inactive)
10 | O=C(O)c1nc2ccc(C(F)(F)F)cc2[nH]c1=O |  | > 100 µM (inactive) | > 100 µM (inactive) | > 100 µM (inactive) | > 100 µM (inactive) | > 100 µM (inactive) | > 100 µM (inactive) | > 100 µM (inactive) | > 100 µM (inactive) | > 100 µM (inactive) | > 100 µM (inactive) | > 100 µM (inactive) | > 100 µM (inactive) | > 100 µM (inactive) | > 100 µM (inactive) | > 100 µM (inactive) | > 100 µM (inactive) | > 100 µM (inactive) | > 100 µM (inactive) | > 100 µM (inactive)
